Patent US5840936A, “Aminosterol compounds useful as inhibitors of the sodium/proton exchanger (NHE)” (priority 1995, dated 1998)
“Also recorded” adds a separate entry of the source.

How the values were obtained:
[1] = system: chick embryo vitelline capillaries; assay: Chick embryo vitelline capillary regression assay; assay type: in vivo; parameters: key to Vitelline capillary regression: +: Vascular reactivity; 0: No vascular reactivity; +/-: Equivocal reactivity
Procedure, shortened: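 Compounds were applied to 3-day chick embryos in 0.1 ml of 15% Ficol 400 and PBS. Regression of vitelline capillaries was scored visually 60 minutes later.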

[2] = system: B16 melanoma; assay: Suppression of B16 melanoma growth in C57B mice; assay type: in vivo, mouse
Description: The growth of B16 melanoma in C57B mice is dependent upon neovascularization.
Using the growth of B16 melanoma cells in C57B mice, a recognized model for the evaluation of inhibitors of angiogenesis on the growth of cancers, the effects of subcutaneous, intraperitoneal and oral administration of squalamine were evaluated.
Animals were implanted with B16 melanoma followed by treatment with compound 1436 or 1256 administered in a combined schedule or separately. […] Thus, a combination of these two compounds achieves a theraputic benefit in tumors dependent on neovascularization that may prevent metastatic spread.

[3] = system: Human colon carcinoma SW948; assay: Growth inhibition in vitro, SW948; assay type: cell-based; details: 10 μg/ml
Excerpt: (§1) As set forth in Table 7 below, all malignant tumors evaluated in tissue culture, endothelial cells and vascular smooth muscle cells were sensitive to inhibition. Thus, compound 1436 has application in the control of growth factor dependent proliferation of many types of tissue.

[4] = system: Human colon carcinoma HT29; assay: Growth inhibition in vitro, HT29; assay type: cell-based; details: 10 μg/ml
Excerpt: as §1

[5] = system: Human ovarian carcinoma SKOV3; assay: Growth inhibition in vitro, SKOV3; assay type: cell-based; details: 10 μg/ml
Excerpt: as §1

[6] = system: Human melanoma WM 1617; assay: Growth inhibition in vitro, WM 1617; assay type: cell-based; details: 10 μg/ml
Excerpt: as §1

[7] = system: Lewis lung carcinoma; assay: Growth inhibition in vitro, Lewis lung carcinoma; assay type: cell-based; details: 10 μg/ml
Excerpt: as §1

[8] = system: Murine B16 melanoma; assay: Growth inhibition in vitro, B16; assay type: cell-based; details: 10 μg/ml
Excerpt: as §1

[9] = system: Murine L1210 leukemia; assay: Growth inhibition in vitro, L1210; assay type: cell-based; details: 10 μg/ml
Excerpt: as §1

[10] = system: bovine pulmonary endothelial cells; assay: Growth inhibition in vitro, bovine pulmonary endothelial cells; assay type: cell-based; details: 10 μg/ml
Excerpt: as §1

[11] = system: Human microvascular endothelial cells; assay: Growth inhibition in vitro, human microvascular endothelial cells; assay type: cell-based; details: 10 μg/ml
Excerpt: as §1

[12] = system: human umbilical venous endothelial cells; assay: Growth inhibition in vitro, human umbilical venous endothelial cells; assay type: cell-based; details: 10 μg/ml
Excerpt: as §1

[13] = system: Human coronary artery smooth muscle cells; assay: Growth inhibition in vitro, human coronary artery smooth muscle cells; assay type: cell-based; details: 10 μg/ml
Excerpt: as §1

[14] = system: PHA-stimulated lymphocytes; assay: Lymphocyte viability in HIV assay; assay type: cell-based; details: 10080 min
Excerpt: Results are tabulated below.

[15] = Fasting blood glucose in mice; assay type: in vivo, male CD-1 mice
Description: To study the effect of steroid administrator or the NHE responsible for secretion of insulin, several of the aminosterols from shark liver were administered to fasting mice. Male CD-1 mice were assigned to one of four treatment groups. Whole blood glucose was tested using glucometer (Lifescan Glucometer II and One Touch test strips). Statistical analysis was via one-way analysis of variance (ANOVA) followed by subsequent Bonferonni's t-test.

[16] = system: human coronary artery smooth muscle; assay: Growth of human coronary artery smooth muscle in vitro; assay type: cell-based
Excerpt: Aminosterols of the invention may also have utility in inhibiting the growth factor mediated proliferation of smooth muscle within the artery. Following coronary angioplasty, reocclusion commonly occurs, secondary to reparative proliferation of the vascular smooth muscle within the wall of the surgically manipulated blood vessel. This process generally takes place over the course of 7-10 days. To evaluate whether an agent could prevent the growth factor mediated proliferation of smooth muscle within the artery, compound 1436 was evaluated in vitro for its effect on the proliferation of human coronary artery smooth muscle. Results for compound 1436 are shown in FIG. 13, and those for squalamine are shown in FIG. 14, with FIG. 15 being a composite logarithmic plot.

[17] = Effect on growth and weight gain in mice; assay type: in vivo, C57B mice; details: 10 mg/kg QTD i.p., after 6 doses, about 1 month
Description: Animals were dosed QTD (i.p.) starting on Day 1. […] Animals receiving 5 mg/kg QTD experienced about a 50% reduction in growth, compared to untreated controls, while animals receiving 1 mg/kg QTD were affected by about 10%. […] They appeared very much like hypophysectamized animals might appear.

[18] = Effect on arterial resistance and blood pressure; assay type: in vivo, rat
Description: A 200-g rat was catheterized in the right carotid artery, and the compound was introduced over a ten-second period to a total dosage of 5 mg/kg. Within 30 seconds, the mean arterial pressure had fallen from about 100 mm Hg to about 70 mm Hg, with a marked reduction in pulse pressure from about 40 mm to about 10 mm. […] If cardiac output was basically unaffected, reduction in blood pressure would have resulted principally from a reduction in system resistance.
At that time, 40 μg of noradrenaline was introduced.

[19] = system: Xenopus laevis heart; assay: Isolated frog heart, persistence of beating ex vivo; details: 10 μg/ml, room temperature, adrenaline 50 μg/ml; control about one hour
Description: To determine if compound 1436 has such utility, the following experiment was performed. The heart of a juvenile Xenopus laevis frog was dissected from the living animal. The heart was placed into a Petri dish containing Krebs-Ringer buffer with adrenaline 50 μg/ml, and examined with the naked eye. At room temperature, the heart continued beating in a coordinated fashion (atrial beat followed by ventricular beat) for about one hour. In the presence of 10 μg/ml of compound 1436, spontaneous beating persisted up to 24 hours.

[20] = system: ELC; assay: ELC MTT; assay type: cell-based; details: Table II; read-out: ELC MTT, Minimum Effective Concentration
[21] = system: Xenopus tadpoles, stage 59-60; details: 10 μg/mL
[22] = system: Xenopus tadpoles, stage 59-60; assay: Xenopus tadpole assay; details: 10 μg/ml
[23] = system: L1210 lymphoblastic leukemia; assay: Mouse model of L1210 leukemia; details: highest dose (10 mg/kg every 3 days i.p.)
Description: C57B mice were inoculated with L1210 lymphoblastic leukemia cells at an inoculum that causes leukemia in 100% of animals.

[24] = molecular target: rabbit NHE3 (Oryctolagus cuniculus, UniProt P26432); assay: NHE3 inhibition, internal pH (BCECF-AM) in transfected PS120 fibroblasts; details: 10 μg/ml, acid preloaded
Sequence of rabbit NHE3 (P26432 30-832): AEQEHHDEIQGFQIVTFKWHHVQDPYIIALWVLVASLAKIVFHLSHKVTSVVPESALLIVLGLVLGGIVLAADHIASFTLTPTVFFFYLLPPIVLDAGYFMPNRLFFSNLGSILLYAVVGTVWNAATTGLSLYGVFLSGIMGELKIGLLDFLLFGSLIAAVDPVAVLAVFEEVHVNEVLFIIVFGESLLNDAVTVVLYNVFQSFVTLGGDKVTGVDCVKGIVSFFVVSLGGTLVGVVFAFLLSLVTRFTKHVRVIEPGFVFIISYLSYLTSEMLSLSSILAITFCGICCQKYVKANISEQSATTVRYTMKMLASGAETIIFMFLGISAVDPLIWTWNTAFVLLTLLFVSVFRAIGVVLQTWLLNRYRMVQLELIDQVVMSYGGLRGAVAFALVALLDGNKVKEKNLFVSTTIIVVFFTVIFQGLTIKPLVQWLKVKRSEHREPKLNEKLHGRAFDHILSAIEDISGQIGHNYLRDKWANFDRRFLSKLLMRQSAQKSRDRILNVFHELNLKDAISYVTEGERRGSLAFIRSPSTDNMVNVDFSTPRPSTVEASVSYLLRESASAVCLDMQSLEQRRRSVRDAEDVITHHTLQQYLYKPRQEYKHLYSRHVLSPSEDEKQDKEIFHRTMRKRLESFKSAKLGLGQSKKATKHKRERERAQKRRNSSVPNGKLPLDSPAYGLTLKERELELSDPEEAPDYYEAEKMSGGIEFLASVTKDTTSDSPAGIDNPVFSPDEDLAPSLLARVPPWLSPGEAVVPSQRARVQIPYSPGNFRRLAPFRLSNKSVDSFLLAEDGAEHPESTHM
Description: Internal pH was measured either following acid loading or in the absence of an acid-loading challenge, with the results shown in FIGS. 1A and 1B.
Specifically, PS120 fibroblasts transfected with rabbit NHE3 were grown in supplemented Dulbecco's-modified Eagle's medium as described by Levine et al., J. Biol. Chem. 268, 1993, 25527-25535. […] For cells not acid-preloaded, the actual internal pH value was monitored as a function of time following addition of squalamine, with the results depicted in FIG. 1B.
PS120 fibroblasts transfected with rabbit NHE3 were grown and acid preloaded by exposure to 40 mM NH4 Cl as described above in conjunction with FIGS. 1A and 1B. Internal cellular pH changes expressed as the rate of pH recovery as a function of restored extracellular sodium ion concentration following exposure to 10 μg/ml of the compound were assayed with the fluorescent dye BCECF-AM as described above.

For `CC(C)[C@@H](CC[C@@H](C)[C@H]1CC[C@H]2[C@@H]3[C@H](O)C[C@H]4C[C@@H](NCCCNCCCCNCCCN)CC[C@]4(C)[C@H]3CC[C@]12C)OS(=O)(=O)O` [Compound 1436], the Vitelline capillary regression ([1]; 0.001 μg applied) was “+/-”, the Vitelline capillary regression ([1]; 0.01 μg applied) was “+” and the Vitelline capillary regression ([1]; 0.1 μg applied) was “+”. The Vitelline capillary regression ([1]; 1 μg applied) was “+”, the Vitelline capillary regression ([1]; 10 μg applied) was “+” and the “Effect on chick embryo vessels” value ([1]; 3- to 5-day chick embryo) was “vitelline capillary regression with about the same potency as squalamine”. For the same compound, the “Impact on tumor volume” value ([2]; compound 1436 10 mg/kg/every 3 days) was “no significant impact on tumor volume”, the “Tumor growth effect of single agent compared with combination” value ([2]; squalamine 15 mg/kg/day, compound 1436 alone in a tolerable schedule) was “Neither administration of squalamine at 15 mg/kg/day nor compound 1436 alone in a tolerable schedule could achieve this effect” and the “Inhibited in vitro: Human colon carcinoma SW948” value [3] was “INHIBITED”. For the same compound, the “Inhibited in vitro: Human colon carcinoma HT29” value [4] was “INHIBITED”, the “Inhibited in vitro: Human ovarian carcinoma SKOV3” value [5] was “INHIBITED” and the “Inhibited in vitro: Human melanoma WM 1617” value [6] was “INHIBITED”. For the same compound, the “Inhibited in vitro: Lewis lung carcinoma” value [7] was “INHIBITED”, the “Inhibited in vitro: Murine B16 melanoma” value [8] was “INHIBITED” and the “Inhibited in vitro: Murine L1210 leukemia” value [9] was “INHIBITED”. For the same compound, the “Inhibited in vitro: Bovine pulmonary endothelial cells” value [10] was “INHIBITED”, the “Inhibited in vitro: Human microvascular endothelial cells” value [11] was “INHIBITED” and the “Inhibited in vitro: Human umbilical venous endothelial cells” value [12] was “INHIBITED”. The “Inhibited in vitro: Human coronary artery smooth muscle cells” value [13] was “INHIBITED”, the “% Viability” value ([14]; 0.5 μM) was 91% and the “% Viability” value ([14]; 10 μM) was 95%. For the same compound, the “Lymphocyte viability” value ([14]; 10 μg/ml) was 95%, the “% Viability” value ([14]; 20 μM) was 90.1% and the “Hyperglycemia” value ([15]; i.v., 1436 in D5W, 1437 in water) was “caused hyperglycemia in mice”. For the same compound, the “Fasting Blood Glucose Mean ± SEM” value ([15]; total dose 20 mg/kg i.v. (2 × 10 mg/kg), 30 min. after 2d dose) was 105 ± 8.0 mg/dL, the “Concentration maintaining quiescent state without loss of viability” value [16] was “about 11 μg/ml” and the “Suppression of growth of human coronary artery smooth muscle” value ([16]; in vitro) was “suppress in vitro the growth of human coronary artery smooth muscle”. For the same compound, the Growth suppression [17] was “growth was almost completely inhibited”, the “Reversibility of blood pressure effect” value ([18]; 40 μg of noradrenaline at 30 minutes) was “readily reversible by standard pharmacological practice” and the “Change of effect over 30 minutes” value ([18]; 5 mg/kg i.v., followed for 30 minutes) was “without significant change”. The “Pulse pressure after dosing” value ([18]; 5 mg/kg i.v., within 30 seconds, from about 40 mm) was “about 10 mm”, the “Mean arterial pressure after dosing” value ([18]; 5 mg/kg i.v., within 30 seconds, from about 100 mm Hg) was “about 70 mm Hg” and the “Persistence of spontaneous beating” value [19] was “up to 24 hours”. For the same compound, the minimal effective concentration [20] was 16.7 µg/mL, the “Tadpole E (epithelial)” value [21] was “±” and the “Tadpole GI (gastrointestinal)” value [21] was “-”. For the same compound, the “Tadpole M (melanocytes)” value [21] was “+”, the “Tadpole Mus (muscle)” value [21] was “-” and the “Tadpole V (vascular)” value [21] was “+”. For the same compound, the “Tadpole assay, observed effects” value [22] was “common vascular occlusive effect; also recorded: Gradual reduction in overall activity; also recorded: Melanocytes over head and tail began to swell, first exhibiting visibly distinct nuclei, followed by rupture into fragments; also recorded: dramatic disruption of melanocytes over its head, trunk, and tail, along with depression of its nervous system; also recorded: No effects are observed on epithelial cell integrity, vascular flow, erythrocyte volume, tissue integrity, muscle fiber striation, or GI tract activity”, the “Tadpole time to death” value [22] was “about 2 hours” and the “Survival in mice bearing L1210 leukemia” value [23] was “significant prolongation of life”. The “Inhibition of rabbit NHE3” value [24] was “found to inhibit rabbit NHE3; also recorded: inhibitor of NHE3”.
